Source: patent US10760110B2, “Antibiotic testing and screening system” (priority 2017, dated 2020)
Read-outs that look alike come from different tables or passages of the source.

How the values were obtained:
Conditions in all cases: Klebsiella pneumoniae
[1] = test system: K. pneumoniae NVT1001 and its ΔompK35/36 and/or ΔramR mutants; experiment: Etest MIC, OmpK35/36 loss and AcrAB-TolC overexpression (ΔramR) strains (Table 6); format: cell-based, Klebsiella pneumoniae
Method in brief: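 MICs were read by Etest strip following the manufacturer's instructions, and values falling between standard two-fold dilutions were rounded up to the next two-fold step. Ceftazidime and cefotaxime were also tested by CLSI broth microdilution and interpreted against CLSI 2017 breakpoints; cephalothin used CLSI 2015 and moxifloxacin EUCAST 2017.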

[2] = test system: K. pneumoniae NVT1001 ΔramRΔompK35/36 mutant and its revertants; experiment: Etest MIC, ΔramRΔompK35/36 mutant and its revertants (Table 7); format: cell-based
[3] = test system: K. pneumoniae NVT1001 strains with carbapenemase plasmids; experiment: Etest MIC of β-lactams, OmpK35/36 loss, ΔramR and/or carbapenemase (Table 9); format: cell-based, Klebsiella pneumoniae
Method in brief: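 Etest MICs, with values between standard dilutions rounded up to the next two-fold step, were measured in K. pneumoniae NVT1001 carrying PCR-cloned resistance genes on pACYC177 or pACYC184 plasmids. Interpretation used CLSI 2017 breakpoints, CLSI 2015 for cephalothin and EUCAST 2017 for moxifloxacin. For the blaOXA-48 strain, ceftazidime and cefotaxime were additionally tested by CLSI broth microdilution.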

Measured: MIC

CO/N=C(\C(=O)N[C@@H]1C(=O)N2C(C(=O)O)=C(COC(N)=O)CS[C@H]12)c1ccco1 [Cefuroxime]
16 µg/mL: [1]; Δ36, ΔompK36 mutant | [2]; ΔramRΔompK35/36::ramR::ompK35 revertant | [3]; OXA-48 on pACYC177, Δ35 (ΔompK35 mutant) | [3]; no supplemental plasmid, Δ36 (ΔompK36 mutant)
4 µg/mL: [1]; WT, NVT1001, read-out: MIC | [2]; ΔramRΔompK35/36::ramR::ompK35/36 revertant | [3]; no supplemental plasmid, WT (NVT1001), read-out: MIC
8 µg/mL: [1]; Δ35, ΔompK35 mutant | [2]; ΔramRΔompK35/36::ramR::ompK36 revertant | [3]; OXA-48 on pACYC177, WT (NVT1001), read-out: MIC | [3]; no supplemental plasmid, Δ35 (ΔompK35 mutant)
> 256 µg/mL: [1]; ΔramRΔ36, ΔramRΔompK36 mutant | [2]; ΔramRΔompK35/36::ompK35 revertant | [3]; IMP-8 on pACYC177, WT (NVT1001), read-out: MIC | [3]; IMP-8 on pACYC177, Δ35 (ΔompK35 mutant) | [3]; IMP-8 on pACYC177, Δ35/36 (ΔompK35/36 mutant) | [3]; IMP-8 on pACYC177, Δ36 (ΔompK36 mutant) | [3]; IMP-8 on pACYC177, ΔramR mutant | [3]; IMP-8 on pACYC177, ΔramRΔ35 (ΔramRΔompK35 mutant) | [3]; IMP-8 on pACYC177, ΔramRΔ35/36 (ΔramRΔompK35/36 mutant) | [3]; IMP-8 on pACYC177, ΔramRΔ36 (ΔramRΔompK36 mutant) | [3]; KPC-2 on pACYC177, WT (NVT1001), read-out: MIC | [3]; KPC-2 on pACYC177, Δ35 (ΔompK35 mutant) | [3]; KPC-2 on pACYC177, Δ35/36 (ΔompK35/36 mutant) | [3]; KPC-2 on pACYC177, Δ36 (ΔompK36 mutant) | [3]; KPC-2 on pACYC177, ΔramR mutant | [3]; KPC-2 on pACYC177, ΔramRΔ35 (ΔramRΔompK35 mutant) | [3]; KPC-2 on pACYC177, ΔramRΔ35/36 (ΔramRΔompK35/36 mutant) | [3]; KPC-2 on pACYC177, ΔramRΔ36 (ΔramRΔompK36 mutant) | [3]; KPC-3 on pACYC177, WT (NVT1001), read-out: MIC | [3]; KPC-3 on pACYC177, Δ35 (ΔompK35 mutant) | [3]; KPC-3 on pACYC177, Δ35/36 (ΔompK35/36 mutant) | [3]; KPC-3 on pACYC177, Δ36 (ΔompK36 mutant) | [3]; KPC-3 on pACYC177, ΔramR mutant | [3]; KPC-3 on pACYC177, ΔramRΔ35 (ΔramRΔompK35 mutant) | [3]; KPC-3 on pACYC177, ΔramRΔ35/36 (ΔramRΔompK35/36 mutant) | [3]; KPC-3 on pACYC177, ΔramRΔ36 (ΔramRΔompK36 mutant) | [3]; NDM-1 on pACYC177, WT (NVT1001), read-out: MIC | [3]; NDM-1 on pACYC177, Δ35 (ΔompK35 mutant) | [3]; NDM-1 on pACYC177, Δ35/36 (ΔompK35/36 mutant) | [3]; NDM-1 on pACYC177, Δ36 (ΔompK36 mutant) | [3]; NDM-1 on pACYC177, ΔramR mutant | [3]; NDM-1 on pACYC177, ΔramRΔ35 (ΔramRΔompK35 mutant) | [3]; NDM-1 on pACYC177, ΔramRΔ35/36 (ΔramRΔompK35/36 mutant) | [3]; NDM-1 on pACYC177, ΔramRΔ36 (ΔramRΔompK36 mutant) | [3]; OXA-48 on pACYC177, ΔramRΔ35/36 (ΔramRΔompK35/36 mutant) | [3]; OXA-48 on pACYC177, ΔramRΔ36 (ΔramRΔompK36 mutant) | [3]; VIM-1 on pACYC177, WT (NVT1001), read-out: MIC | [3]; VIM-1 on pACYC177, Δ35 (ΔompK35 mutant) | [3]; VIM-1 on pACYC177, Δ35/36 (ΔompK35/36 mutant) | [3]; VIM-1 on pACYC177, Δ36 (ΔompK36 mutant) | [3]; VIM-1 on pACYC177, ΔramR mutant | [3]; VIM-1 on pACYC177, ΔramRΔ35 (ΔramRΔompK35 mutant) | [3]; VIM-1 on pACYC177, ΔramRΔ35/36 (ΔramRΔompK35/36 mutant) | [3]; VIM-1 on pACYC177, ΔramRΔ36 (ΔramRΔompK36 mutant) | [3]; no supplemental plasmid, ΔramRΔ36 (ΔramRΔompK36 mutant)
128 µg/mL: [1]; ΔramRΔ35/36, ΔramRΔompK35/36 mutant | [2]; ΔramRΔompK35/36 mutant | [3]; OXA-48 on pACYC177, Δ35/36 (ΔompK35/36 mutant) | [3]; no supplemental plasmid, ΔramRΔ35/36 (ΔramRΔompK35/36 mutant)
32 µg/mL: [1]; Δ35/36, ΔompK35/36 mutant | [1]; ΔramR mutant | [2]; ΔramRΔompK35/36::ompK35/36 revertant | [2]; ΔramRΔompK35/36::ompK36 revertant | [2]; ΔramRΔompK35/36::ramR revertant | [3]; OXA-48 on pACYC177, Δ36 (ΔompK36 mutant) | [3]; no supplemental plasmid, Δ35/36 (ΔompK35/36 mutant) | [3]; no supplemental plasmid, ΔramR mutant
64 µg/mL: [1]; ΔramRΔ35, ΔramRΔompK35 mutant | [3]; OXA-48 on pACYC177, ΔramR mutant | [3]; OXA-48 on pACYC177, ΔramRΔ35 (ΔramRΔompK35 mutant) | [3]; no supplemental plasmid, ΔramRΔ35 (ΔramRΔompK35 mutant)
